The values that follow are results of earlier work, collected in US7959947B2, “Film coating” (AstraZeneca AB, priority 2001, dated 2011).

For this series the following is noted: 60° C.; according to data in Handbook of Pharmaceutical Excipients.

For the compound `CCCCCCCCCCCCCCCCCCOC(=O)/C=C/C(=O)[O-].[Na+]` [Sodium stearyl fumarate, sodium salt of 2-butenedioic monooctadecyl ester], the Solubility in water is reported as 0.005 gram per gram water.
